Data as given in US20240350430A1, “GROWTH INHIBITOR OF METASTATIC HUMAN PROSTATE CANCER CELLS” (Watanabe Oyster Laboratory Co., Ltd., priority 2021, published 2024).

How the values were obtained:
Format in all cases: cell-based, human
PC-3 cells [1] = experiment: Colony formation of PC-3 cells; conditions: DHMBA 1 or 10 μM, nine days
Description: (§1) The PC-3 and DU-145 cells (1×10^3/in 2 ml of a culture fluid per hole using a six-hole plate) were cultured in a DMEM culture fluid (containing 10% of FBS, 1% of P/S, and 1% of fungizone) containing the DHMBA (1 and 10 μM) under 5% of CO2, at 37° C., for nine days. After the culture, the culture fluid was removed, the cells were washed twice with PBS, 95% of methanol (0.5 ml) was added, and the cells were fixed for 20 minutes. After the fixation, each well of a culture dish was washed four times with PBS (1 ml), and after that 0.5% of crystal violet (0.5 ml) was added, and the product was left for two hours at room temperature for staining. After the stain solution was washed to be removed, drying was performed, and after that colonies containing 50 or more cells were counted by a microscope (Olympus MTV-3, Olympus Corporation, Tokyo, Japan).
FIG. 1(A) is a drawing in which the PC-3 cells (the cell number of 1×10^3/per well of a six-well plate) were cultured under 5% of CO2, at 37° C., for nine days in a DMEM culture fluid (containing 10% of FBS, 1% of P/S, and 1% of fungizone) containing the DHMBA (1 or 10 μM).
FIG. 1(B) is a diagram of counting the number of colonies.

DU-145 cells = experiment: Colony formation of DU-145 cells; conditions: DHMBA 1 or 10 μM, nine days
Description: as §1
FIG. 2(A) is a drawing in which the DU-145 cells (1×10^3 cells/per well of a six-well plate) were cultured under 5% of CO2, at 37° C., for nine days in a DMEM culture fluid (containing 10% of FBS, 1% of P/S, and 1% of fungizone) containing the DHMBA (1 or 10 μM).
FIG. 2(B) is a diagram of counting the number of colonies.

PC-3 cells [2] = experiment: Cell invasion, Transwell chambers with Matrigel, PC-3 cells; conditions: DHMBA 1, 10, or 100 μM, 24 hours
Description: The cell invasion activity of the prostate cancer PC-3 and DU-145 cells was measured using Transwell chambers (the catalogue number CLS3464-48EA of Corning, Life Sciences, USA). A chamber was placed in each well of the 24-hole plate. 50 μl of Matrigel (Corning Life Sciences, Cat. No. 356230, USA) was added to the upper surface of the chambers. After drying the gel, 500 μl of a suspension of the PC-3 or DU-145 cells (the cell number of 2.5×10^4/ml, the DMEM not containing FBS) was added to the upper surface of the gel. This cell suspension contained the DHMBA (0, 1, 10, or 100 μM). After the addition of the cell suspension to the chambers, it was incubated for one hour to cause the cells to adhere. 0.75 ml of the culture fluid not containing the FBS and a culture fluid containing 10% of FBS were added to the lower surface of the chambers. The cells on the plate were cultured under 5% of CO2, 95% of air, at 37° C., for 24 hours. […] After the drying, the number of the stained cells was counted by the microscope (Olympus MTV-3, Olympus Corporation, Tokyo, Japan). […]
The cell invasion activities of the prostate cancer PC-3 and DU-145 cells were measured using the Transwell chambers. […] After the drying, the number of the stained cells was counted by the microscope (Olympus MTV-3, Olympus Corporation, Tokyo, Japan). […]

COc1c(O)cc(CO)cc1O [DHMBA, 3,5-dihydroxy-4-methoxybenzyl alcohol]
significantly inhibited: colony formation (PC-3 cells [1]) | colony formation (DU-145 cells) | invasion (PC-3 cells [2])
